Measurements taken from PubChem BioAssay (NCI).
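GI50 = concentration required for 50% inhibition of growth. Definition used: TGI = concentration required for complete inhibition of growth.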

Experiments:
Assay in all cases: NCI-60 cell line screen, 384-well format
[1] = system: RPMI-8226 leukemia
[2] = system: SW-620 colon
[3] = system: SF-268 CNS
[4] = system: IGROV1 ovarian
[5] = system: SK-MEL-28 melanoma
[6] = system: OVCAR-8 ovarian
[7] = system: KM12 colon
[8] = system: NCI-H460 NSCLC
[9] = system: HCT-15 colon
[10] = system: NCI/ADR-RES ovarian
[11] = system: NCI-H522 lung
[12] = system: NCI-H23 lung
[13] = system: EKVX NSCLC
[14] = system: T-47D breast
[15] = system: OVCAR-5 ovarian
[16] = system: CCRF-CEM leukemia
[17] = system: SK-MEL-5 melanoma
[18] = system: HS 578T breast
[19] = system: HOP-62 NSCLC
[20] = system: PC-3 prostate
[21] = system: BT-549 breast
[22] = system: RXF 393 renal
[23] = system: UACC-257 melanoma
[24] = system: U251 glioblastoma
[25] = system: MOLT-4 leukemia
[26] = system: M14 melanoma
[27] = system: MDA-MB-231 breast
[28] = system: HT29 colon
[29] = system: SN12C renal
[30] = system: LOX IMVI melanoma
[31] = system: SNB-19 CNS
[32] = system: MCF7 breast
[33] = system: SF-295 CNS
[34] = system: SNB-75 CNS
[35] = system: K-562 leukemia
[36] = system: NCI-H322M lung
[37] = system: TK-10 renal
[38] = system: CAKI-1 renal
[39] = system: HL-60(TB) leukemia
[40] = system: MDA-MB-435 melanoma
[41] = system: A498 renal
[42] = system: OVCAR-4 ovarian
[43] = system: ACHN renal
[44] = system: SK-OV-3 ovarian
[45] = system: HOP-92 NSCLC
[46] = system: OVCAR-3 ovarian
[47] = system: COLO 205 colon
[48] = system: SR leukemia
[49] = system: 786-0 renal
[50] = system: MALME-3M melanoma
[51] = system: MDA-MB-468 breast
[52] = system: NCI-H226 lung
[53] = system: UACC-62 melanoma
[54] = system: DU-145 prostate
[55] = system: SF-539 CNS
[56] = system: HCC-2998 colon
[57] = system: UO-31 renal
[58] = system: A549 NSCLC

NC(N)=Nc1ccc(-n2nc(C(F)(F)F)cc2-c2ccc3c(ccc4ccccc43)c2)cc1
GI50 [1]: 1310 nM
TGI [1]: 2590 nM
GI50 [2]: 1820 nM
TGI [2]: 3230 nM
GI50 [3]: 1830 nM
TGI [3]: 3240 nM
GI50 [4]: 1820 nM
TGI [4]: 3230 nM
GI50 [5]: 1780 nM
TGI [5]: 3170 nM
GI50 [6]: 1830 nM
TGI [6]: 3230 nM
GI50 [7]: 1470 nM
TGI [7]: 2800 nM
GI50 [8]: 1690 nM
TGI [8]: 3070 nM
GI50 [9]: 1530 nM
TGI [9]: 2890 nM
GI50 [10]: 2380 nM
TGI [10]: 4830 nM
GI50 [11]: 1780 nM
TGI [11]: 3180 nM
GI50 [12]: 1630 nM
TGI [12]: 2990 nM
GI50 [13]: 1720 nM
TGI [13]: 3100 nM
GI50 [14]: 1760 nM
TGI [14]: 3150 nM
GI50 [15]: 1880 nM
TGI [15]: 3290 nM
GI50 [16]: 1110 nM
TGI [16]: 2310 nM
GI50 [17]: 1830 nM
TGI [17]: 3220 nM
GI50 [18]: 1770 nM
TGI [18]: 3160 nM
GI50 [19]: 1770 nM
TGI [19]: 3170 nM
GI50 [20]: 1720 nM
TGI [20]: 3110 nM
GI50 [21]: 1750 nM
TGI [21]: 3140 nM
GI50 [22]: 1590 nM
TGI [22]: 2930 nM
GI50 [23]: 1950 nM
TGI [23]: 3370 nM
GI50 [24]: 1840 nM
TGI [24]: 3270 nM
GI50 [25]: 1440 nM
TGI [25]: 2750 nM
GI50 [26]: 1740 nM
TGI [26]: 3140 nM
GI50 [27]: 1570 nM
TGI [27]: 2930 nM
GI50 [28]: 1740 nM
TGI [28]: 3140 nM
GI50 [29]: 1810 nM
TGI [29]: 3220 nM
GI50 [30]: 1530 nM
TGI [30]: 2870 nM
GI50 [31]: 1770 nM
TGI [31]: 3170 nM
GI50 [32]: 1250 nM
TGI [32]: 2520 nM
GI50 [33]: 1840 nM
TGI [33]: 3250 nM
GI50 [34]: 1760 nM
TGI [34]: 3150 nM
GI50 [35]: 1570 nM
TGI [35]: 2920 nM
GI50 [36]: 1650 nM
TGI [36]: 3020 nM
GI50 [37]: 1810 nM
TGI [37]: 3210 nM
GI50 [38]: 1740 nM
TGI [38]: 3140 nM
GI50 [39]: 838 nM
TGI [39]: 2070 nM
GI50 [40]: 1850 nM
TGI [40]: 3260 nM
GI50 [41]: 1550 nM
TGI [41]: 2900 nM
GI50 [42]: 1610 nM
TGI [42]: 2970 nM
GI50 [43]: 1840 nM
TGI [43]: 3250 nM
GI50 [44]: 1620 nM
TGI [44]: 2980 nM
GI50 [45]: 1390 nM
TGI [45]: 2700 nM
GI50 [46]: 1840 nM
TGI [46]: 3260 nM
GI50 [47]: 1300 nM
TGI [47]: 2580 nM
GI50 [48]: 765 nM
TGI [48]: 2020 nM
GI50 [49]: 1620 nM
TGI [49]: 2980 nM
GI50 [50]: 1650 nM
TGI [50]: 3020 nM
GI50 [51]: 2020 nM
TGI [51]: 3450 nM
GI50 [52]: 1640 nM
TGI [52]: 3010 nM
GI50 [53]: 1740 nM
TGI [53]: 3130 nM
GI50 [54]: 1850 nM
TGI [54]: 3270 nM
GI50 [55]: 1860 nM
TGI [55]: 3270 nM
GI50 [56]: 736 nM
TGI [56]: 2030 nM
GI50 [57]: 1780 nM
TGI [57]: 3200 nM
GI50 [58]: 1740 nM
TGI [58]: 3130 nM
